Assay results: patent publication US20170045513A1, “METHODS OF DIAGNOSING CELIAC DISEASE USING IP-10” (ImmusanT, Inc., priority 2014, published 2017)
Non-standard residues stand in square brackets, D forms with d. pGlu = O=C1CC[C@@H](C(=O)O)N1

Columns and labels:
Assay type in all cases: cell-based, human
[1] = test system: gluten-reactive T cells; assay: Cytokine release assays taken together (IFNγ ELISpot, whole blood IFNγ and IP-10, in-tube IFNγ ELISA); details: HLA-DQ2.5+ celiac disease subjects after gluten challenge
Method: Gluten peptide solutions for addition to whole blood were arranged according to standardized templates in sterile 96-well U-bottom plates (30 μL/well). Plates were sealed with adhesive ELISA plate cover slips before the plastic lid was replaced and being frozen at −80° C. Whole blood assay (WBA) “medium” (1% DMSO in 90% PBS and 9% normal saline), mitogen (PHA-L, Sigma-Aldrich #L2769; St Louis Mo.) 100 μg/ml in WBA medium, and CEF diluted to 10 μg/ml in PBS with a final concentration of 1% DMSO were frozen separately in sterile cryovials. 96-well plates and cryovials with frozen incubation solutions were shipped on dry ice to the clinical site where blood was collected and incubations performed. Solutions were thawed at room temperature for 10 min just before being added to whole blood. 96-well plates were thawed while being centrifuged at 300 g to avoid surface condensation. A multi-channel pipette was used to efficiently transfer 25 μL of peptide solutions from the original 96-well plate to corresponding wells in a fresh sterile 96-well U-bottom plate. Once incubation solutions had been added, 225 μL of whole blood was added to each well and the plate transferred to incubate for 24 h at 37° C. 5% CO2. […] Individual peptides were incubated at a final assay concentration of 51.1M. Final concentrations of individual peptides assessed in P3 was 0.05-50 μg/mL, and in P14 and P13 pools 0.025-25 μM. The P71 pool was tested at between 0.005-10 pg/mL, the highest tested concentration being the maximal possible not exceeding 0.1% DMSO. Peptide pools, mitogen, and medium only were assessed in triplicate wells, and on Day-6 individual peptides were assessed in duplicate wells. Incubations were terminated after 24 h, and 96-well plates centrifuged at 300 g for 10 min. A total of approximately 90 to 120 μL of plasma was removed from each well taking care to avoid red cell contamination, and transferred into corresponding wells of two further 96-well plates (one with 30 μL/well and the residual in the second plate). Plasmas were frozen at −80° C. and later shipped on dry ice to the central lab where IP-10 and IFNγ multiplex bead assays were performed according to manufacturer's instructions using 25 μL plasma per well (Milliplex® MAP Human Cytokine/Chemokine Magnetic Bead Panel #HCYTOMAG-60k-02; EMD Millipore Corp., Billerica, Mass. 01821) and analysed with the Luminex® MAGPIX® System xPONENT® software (Luminex Corporation, Austin Tex. 78727). Plasma cytokine levels for each assay condition were expressed as the mean analyte concentration of each of the three replicate incubations. Laboratory staff were unaware of the arrangement of peptide solutions incubated with during assay setup and plate counting.
Aliquots of PBS, P3 peptides diluted in PBS (final concentration in blood 3× 50 or CEF to a final concentration 1 μg/mL were prepared in sterile cryovials (0.11 mL/vial) and stored frozen (−80° C.) until immediately before use. P3, CEF and two PBS aliquots were drawn up in separate sterile 0.3 mL insulin syringes with attached 29G×½″ needle (Terumo, SS*30M2913; Elkton Md. 21921). P3, CEF and one PBS aliquot was injected through the stoppers of three separate QuantiFERON® NIL tubes already containing 1 mL blood, and one aliquot of PBS was injected into a QuantiFERON® MITOGEN tube already containing 1 mL blood. All four tubes containing blood and incubation solution were gently inverted ten-times and transferred to incubate at 37° C. 5% CO2. After for 24 h, tubes were centrifuged 300 g 10 min. Plasma was separated and equal volumes placed in two 1.5 mL cryovials. Frozen plasmas were transferred to the central lab where IFNγ levels were measured in triplicate 50 μL samples by ELISA (MABtech Human IFN-γ ELISA development kit HRP, 3420-1H-6; capture mAb 1-D1K). […]

[2] = test system: gluten-reactive T cells; assay: 96-well plate whole blood cytokine release, IFNγ by MAGPIX multiplex bead assay; details: for Percent of maximal response to individual gluten peptides, IFNg: after oral gluten challenge; for IFNγ WB MAGPIX % max Mean: n = 8, blood after oral gluten challenge, individual peptides 5 μM (Peptide 2* of P14, Pepscan: 10 μg/mL (5.45 μM))
[3] = test system: gluten-reactive T cells; assay: 96-well plate whole blood cytokine release, IP-10 by MAGPIX multiplex bead assay; details: for Percent of maximal response to individual gluten peptides, IP-10: after oral gluten challenge; for IP-10 WB MAGPIX % max Mean: n = 10, blood after oral gluten challenge, individual peptides 5 μM (Peptide 2* of P14, Pepscan: 10 μg/mL (5.45 μM))
[4] = test system: gluten-reactive T cells; assay: Overnight IFNγ ELISpot assay with fresh PBMC; details: for Percent of maximal response to individual gluten peptides, ELISp: after oral gluten challenge; for IFNγ ELISpot % max Mean: n = 5, blood after oral gluten challenge, individual peptides 5 μM (Peptide 2* of P14, Pepscan: 10 μg/mL (5.45 μM))
Method: HLA-DQ2.5-positive celiac disease subjects on gluten-free diet were used in this study. Blood was collected immediately before and 6 days after commencing 3-day oral gluten challenge. Whole blood or PBMCs were incubated with pools or single peptides derived from gluten or recall antigens. IFNγ and IP-10 levels were measured in plasma from the whole blood that was incubated in 96-well plates with peptides or peptide pools. Plasma cytokine/chemokine levels were measured by MAGPIX® multiplex bead assay (IFNγ and IP-10) or by ELISA (IFNγ and IP-10), and PBMC separated from the same blood sample were incubated in overnight IFNγ ELISpot assays.
Overnight IFNγ ELISpot assays (Human IFN-γ ELISpotPRO kit, transparent, ALP; Mabtech AB, #3420-2APT-10) were performed using PBMC freshly separated from heparinized blood diluted 1:1 in PBS with 2% fetal bovine serum (Stemcell Technologies #07905; Vancouver, BC, V5Z 1B3, Canada) overlaid on density gradient medium (Ficoll-Paque™ PLUS; GE Healthcare Lice Sciences #:17-1440-02) in SepMate™-50 tubes (Stemcell Technologies #15460). PBMC (8 million/mL) were resuspended in serum-free medium with gentamicin and phenol red (X-VIVO™15; Lonza, Walkersville Mass. 21793). PBMC (0.4 million/50 pt/well) and incubated with 50 μL 80% X-vivo15, 0.2% DMSO and 20% PBS in three triplicate wells (“medium only”), or with 50 μL PHA-L 20 μg/ml or peptide at 2× final concentration in 80% X-vivo15, 0.2% DMSO and 20% PBS. Peptide solutions to be added to individual ELISpot wells were prepared in 96-well U-bottom plates (60 pt/well) that were then sealed with adhesive ELISA plate cover slips before replacing the plastic lid and being frozen at −80° C. 96-well plates containing peptide solutions were thawed at room temperature for 10 min while being centrifuged at 300 g immediately prior to being added to ELISpot wells. Peptide pools and mitogen were assessed in triplicate wells, and individual peptides were assessed in duplicate wells. X-VIVO™15 (50 μL) was incubated with 80% X-vivo15, 0.2% DMSO and 20% PBS (50 μL) in triplicate wells (“no PBMC” control). A Zeiss automated ELISpot counter was used to determine spot forming units (SFU) per well (Zellnet Inc., Fort Lee, N J 07024). Laboratory staff were unaware of the arrangement of peptide solutions in ELISpot wells during assay setup and plate counting.

## (pE)GQQGYYPTSPQQSG-amide ([pGlu]GQQGYYPTSPQQSG-NH2; SMILES C[C@@H](O)[C@H](NC(=O)[C@@H]1CCCN1C(=O)[C@H](Cc1ccc(O)cc1)NC(=O)[C@H](Cc1ccc(O)cc1)NC(=O)CNC(=O)[C@H](CCC(N)=O)NC(=O)[C@H](CCC(N)=O)NC(=O)CNC(=O)[C@@H]1CCC(=O)N1)C(=O)N[C@@H](CO)C(=O)N1CCC[C@H]1C(=O)N[C@@H](CCC(N)=O)C(=O)N[C@@H](CCC(N)=O)C(=O)N[C@@H](CO)C(=O)NCC(N)=O) [Peptide 10]
[1]
  cytokine release / immunogenicity of individual peptide: weak or not distinguishable from medium alone
[2]; Subject 2, Max. 116 pg/mL
  Percent of maximal response to individual gluten peptides, IFNg: 23 % of max
[2]; Subject 3, Max. 799 pg/mL
  Percent of maximal response to individual gluten peptides, IFNg: 0 % of max
[2]; Subject 4, Max. 136 pg/mL
  Percent of maximal response to individual gluten peptides, IFNg: 0 % of max
[2]; Subject 6, Max. 72 pg/mL
  Percent of maximal response to individual gluten peptides, IFNg: 0 % of max
[2]; Subject 7, Max. 17 pg/mL
  Percent of maximal response to individual gluten peptides, IFNg: 0 % of max
[2]; Subject 8, Max. 47 pg/mL
  Percent of maximal response to individual gluten peptides, IFNg: 0 % of max
[2]; Subject 9, Max. 67 pg/mL
  Percent of maximal response to individual gluten peptides, IFNg: 0 % of max
[2]; Subject 10, Max. 229 pg/mL
  Percent of maximal response to individual gluten peptides, IFNg: 9 % of max
[2]
  IFNγ WB MAGPIX % max Mean: 4 % max
[3]; Subject 1, Max. 2331 pg/mL
  Percent of maximal response to individual gluten peptides, IP-10: 0 % of max
[3]; Subject 2, Max. 3646 pg/mL
  Percent of maximal response to individual gluten peptides, IP-10: 0 % of max
[3]; Subject 3, Max. 9492 pg/mL
  Percent of maximal response to individual gluten peptides, IP-10: 0 % of max
[3]; Subject 4, Max. 9463 pg/mL
  Percent of maximal response to individual gluten peptides, IP-10: 0 % of max
[3]; Subject 6, Max. 5863 pg/mL
  Percent of maximal response to individual gluten peptides, IP-10: 0 % of max
[3]; Subject 7, Max. 2330 pg/mL
  Percent of maximal response to individual gluten peptides, IP-10: 0 % of max
[3]; Subject 10, Max. 8922 pg/mL
  Percent of maximal response to individual gluten peptides, IP-10: 9 % of max
[3]
  IP-10 WB MAGPIX % max Mean: 1 % max
[4]; Subject 3, Max. 18 SFU
  Percent of maximal response to individual gluten peptides, ELISp: 17 % of max
[4]; Subject 4, Max. 36 SFU
  Percent of maximal response to individual gluten peptides, ELISp: 3 % of max
[4]; Subject 8, Max. 17 SFU
  Percent of maximal response to individual gluten peptides, ELISp: 0 % of max
[4]; Subject 10, Max. 11 SFU
  Percent of maximal response to individual gluten peptides, ELISp: 9 % of max
[4]
  IFNγ ELISpot % max Mean: 8 % max

## (pE)QPFPEQPEQIIPQQP-amide ([pGlu]QPFPEQPEQIIPQQP-NH2; SMILES CC[C@H](C)[C@H](NC(=O)[C@H](CCC(N)=O)NC(=O)[C@H](CCC(=O)O)NC(=O)[C@@H]1CCCN1C(=O)[C@H](CCC(N)=O)NC(=O)[C@H](CCC(=O)O)NC(=O)[C@@H]1CCCN1C(=O)[C@H](Cc1ccccc1)NC(=O)[C@@H]1CCCN1C(=O)[C@H](CCC(N)=O)NC(=O)[C@@H]1CCC(=O)N1)C(=O)N[C@H](C(=O)N1CCC[C@H]1C(=O)N[C@@H](CCC(N)=O)C(=O)N[C@@H](CCC(N)=O)C(=O)N1CCC[C@H]1C(N)=O)[C@@H](C)CC) [Peptide 12]
[1]
  cytokine release / immunogenicity of individual peptide: weak or absent
[2]; Subject 2, Max. 116 pg/mL
  Percent of maximal response to individual gluten peptides, IFNg: 13 % of max
[2]; Subject 3, Max. 799 pg/mL
  Percent of maximal response to individual gluten peptides, IFNg: 0 % of max
[2]; Subject 4, Max. 136 pg/mL
  Percent of maximal response to individual gluten peptides, IFNg: 0 % of max
[2]; Subject 6, Max. 72 pg/mL
  Percent of maximal response to individual gluten peptides, IFNg: 0 % of max
[2]; Subject 7, Max. 17 pg/mL
  Percent of maximal response to individual gluten peptides, IFNg: 0 % of max
[2]; Subject 8, Max. 47 pg/mL
  Percent of maximal response to individual gluten peptides, IFNg: 0 % of max
[2]; Subject 9, Max. 67 pg/mL
  Percent of maximal response to individual gluten peptides, IFNg: 0 % of max
[2]; Subject 10, Max. 229 pg/mL
  Percent of maximal response to individual gluten peptides, IFNg: 1 % of max
[2]
  IFNγ WB MAGPIX % max Mean: 2 % max
[3]; Subject 1, Max. 2331 pg/mL
  Percent of maximal response to individual gluten peptides, IP-10: 11 % of max
[3]; Subject 2, Max. 3646 pg/mL
  Percent of maximal response to individual gluten peptides, IP-10: 3 % of max
[3]; Subject 3, Max. 9492 pg/mL
  Percent of maximal response to individual gluten peptides, IP-10: 9 % of max
[3]; Subject 4, Max. 9463 pg/mL
  Percent of maximal response to individual gluten peptides, IP-10: 5 % of max
[3]; Subject 5, Max. 9336 pg/mL
  Percent of maximal response to individual gluten peptides, IP-10: 4 % of max
[3]; Subject 6, Max. 5863 pg/mL
  Percent of maximal response to individual gluten peptides, IP-10: 0 % of max
[3]; Subject 7, Max. 2330 pg/mL
  Percent of maximal response to individual gluten peptides, IP-10: 0 % of max
[3]; Subject 8, Max. 4019 pg/mL
  Percent of maximal response to individual gluten peptides, IP-10: 0 % of max
[3]; Subject 9, Max. 8349 pg/mL
  Percent of maximal response to individual gluten peptides, IP-10: 1 % of max
[3]; Subject 10, Max. 8922 pg/mL
  Percent of maximal response to individual gluten peptides, IP-10: 0 % of max
[3]
  IP-10 WB MAGPIX % max Mean: 3 % max
[4]; Subject 3, Max. 18 SFU
  Percent of maximal response to individual gluten peptides, ELISp: 6 % of max
[4]; Subject 4, Max. 36 SFU
  Percent of maximal response to individual gluten peptides, ELISp: 0 % of max
[4]; Subject 8, Max. 17 SFU
  Percent of maximal response to individual gluten peptides, ELISp: 6 % of max
[4]; Subject 10, Max. 11 SFU
  Percent of maximal response to individual gluten peptides, ELISp: 0 % of max
[4]
  IFNγ ELISpot % max Mean: 3 % max
